Assays:
GAPDH = test: Western immunoblot of GAPDH (non-targeted gene) in PNA-treated R6/1 mice; type: in vivo, mouse; conditions: any animal tested
Procedure: Following the treatment period, mice were anesthetized with ether and sacrificed by cervical dislocation. Whole brains and livers were removed and placed in 0.9% saline. Striatum tissue was dissected from whole brains, and liver tissue was finely minced. The tissues were placed in separate 2 mL microfuge tubes on dry ice and then suspended in 20 volumes of RIPA buffer (50 mM Tris pH 8, 150 mM NaCl, 1 mM EDTA, 1 mM EGTA, 0.5% sodium deoxycholate, 0.1% SDS, 1% TritonX-100, 2 μg/mL leupeptin, 2 μg/mL aprotinin, 1 μg/mL pepstatin, 1 mM phenylmethylsulfonylfluoride) per gram of tissue. Suspended tissues were homogenized by sonication, and the homogenates were clarified by centrifugation at 12,000×g for 20 minutes at 4° C. Following centrifugation, the supernatants were removed and protein concentrations were quantified by Bradford assays using a BSA standard.
Immunoblotting: Supernatants from the tissue homogenates were mixed with 1/6 volume of 6×SDS sample buffer (350 mM Tris pH 6.8, 10% SDS, 30% glycerol, 15% 2-mercaptoethanol, 0.012% bromophenol blue). Equal amounts of protein were directly loaded onto 10% acrylamide/0.05% bisacrylamide gels without heat denaturation. […] Protein bands were detected on film by chemiluminescence. […]

[1] = test system: endogenous mouse Hdh allele; test: Western immunoblot of endogenous mouse htt expression in PNA-treated R6/1 mice; type: in vivo; conditions: any tissue examined (striatum, liver), any tested time point (4 or 6 days)
Procedure: Cannulation and microsurgery—method 1: B6CBA, R6/1, and R6/2 mice were obtained from The Jackson Laboratory (Bar Harbor, Me.). Mice were anesthetized via intraperitoneal (i.p.) injection with 100 mg/kg of a ketamine/xylazine solution containing 8 mg/mL ketamine and 1 mg/mL xylazine in 0.9% saline. Once anesthetized, each mouse was cannulated. Each anesthetized mouse was placed in a Stoelting Stereotaxic Frame with a mouse adapter (Stoelting Instruments, Wood Dale, Ill.). An incision was made using a scalpel, and the skin and tissue were pulled back with swabs to reveal the skull. The cannulation site was positioned for optimum access to the ventricle, at coordinates AP −0.2 mm, Horiz −1 mm from bregma. A cannula entry port and two bone screw ports were opened in the skull using a Dremel Flex Shaft Drill (Stoelting Instruments) with a 2.1 mm burr for the guide cannula port and a 0.7 mm burr for the bone screws (Fine Science Tools, Foster City, Calif.). Two 4.0 mm long bone screws (0.85 diameter) were placed far enough into the bone screw ports to fasten securely. […]
Following the treatment period, mice were anesthetized with ether and sacrificed by cervical dislocation. […] Following centrifugation, the supernatants were removed and protein concentrations were quantified by Bradford assays using a BSA standard. […]

mice = test: Toxicity observation (behavior, weight, motor function) during intraventricular PNA treatment; type: in vivo; conditions: 1.0 μL (25 μg/μL) into the ventricle every other day
Procedure: Animal treatment and tissue preparation: Aliquots of 1.0 μL (25 μg/μL) of a PNA oligomer specific for the expanded human HD allele (HDs) or a scrambled control PNA (HDscr) were administered into the ventricle every other day by injection via the cannula.

## HDscr: scrambled control PNA oligomer, 5′-GCAGCGGCGGTCCT-3′ (SEQ ID NO:4) (all peptide nucleic acid (PNA)) [reference compound]
GAPDH
  inhibition of non-targeted genes such as GAPDH: No measurable inhibition
[1]
  effect on expression of the endogenous mouse Hdh allele: Neither HDs nor HDscr had any effect
mice
  toxicity as measured by weight or motor function relative to untreated animals: no effects of toxicity
